Results: BigSolDB 2.1

For `O=c1cnc(Br)c[nH]1`, the solubility (mole fraction) (in DMF, 278.15 K) was 0.00576, the solubility (mole fraction) (in DMF, 283.15 K) was 0.00768 and the solubility (mole fraction) (in DMF, 288.15 K) was 0.00988. The solubility (mole fraction) (in DMF, 293.15 K) was 0.0124, the solubility (mole fraction) (in DMF, 298.15 K) was 0.0151 and the solubility (mole fraction) (in DMF, 303.15 K) was 0.0181. The solubility (mole fraction) (in DMF, 308.15 K) was 0.0219, the solubility (mole fraction) (in DMF, 313.15 K) was 0.026 and the solubility (mole fraction) (in DMF, 318.15 K) was 0.0309. For the same molecule, the solubility (mole fraction) (in DMF, 323.15 K) was 0.0365, the solubility (mole fraction) (in acetone, 278.15 K) was 0.00534 and the solubility (mole fraction) (in acetone, 283.15 K) was 0.00685. The solubility (mole fraction) (in acetone, 288.15 K) was 0.00877, the solubility (mole fraction) (in acetone, 293.15 K) was 0.0106 and the solubility (mole fraction) (in acetone, 298.15 K) was 0.013. For the same molecule, the solubility (mole fraction) (in acetone, 303.15 K) was 0.0161, the solubility (mole fraction) (in acetone, 308.15 K) was 0.0194 and the solubility (mole fraction) (in acetone, 313.15 K) was 0.023. For the same molecule, the solubility (mole fraction) (in acetone, 318.15 K) was 0.0275, the solubility (mole fraction) (in acetone, 323.15 K) was 0.0328 and the solubility (mole fraction) (in acetonitrile, 278.15 K) was 0.00413. The solubility (mole fraction) (in acetonitrile, 283.15 K) was 0.00519, the solubility (mole fraction) (in acetonitrile, 288.15 K) was 0.00625 and the solubility (mole fraction) (in acetonitrile, 293.15 K) was 0.00766. It also gave a solubility (mole fraction) (in acetonitrile, 298.15 K) of 0.00941, a solubility (mole fraction) (in acetonitrile, 303.15 K) of 0.0113 and a solubility (mole fraction) (in acetonitrile, 308.15 K) of 0.0136. For the same molecule, the solubility (mole fraction) (in acetonitrile, 313.15 K) was 0.0161, the solubility (mole fraction) (in acetonitrile, 318.15 K) was 0.019 and the solubility (mole fraction) (in acetonitrile, 323.15 K) was 0.0222. For the same molecule, the solubility (mole fraction) (in ethanol, 278.15 K) was 0.000696, the solubility (mole fraction) (in ethanol, 283.15 K) was 0.000989 and the solubility (mole fraction) (in ethanol, 288.15 K) was 0.00128. It also gave a solubility (mole fraction) (in ethanol, 293.15 K) of 0.00166, a solubility (mole fraction) (in ethanol, 298.15 K) of 0.0021 and a solubility (mole fraction) (in ethanol, 303.15 K) of 0.00251. The solubility (mole fraction) (in ethanol, 308.15 K) was 0.00303, the solubility (mole fraction) (in ethanol, 313.15 K) was 0.0036 and the solubility (mole fraction) (in ethanol, 318.15 K) was 0.00434. The solubility (mole fraction) (in ethanol, 323.15 K) was 0.00525, the solubility (mole fraction) (in ethylene glycol, 278.15 K) was 0.00014 and the solubility (mole fraction) (in ethylene glycol, 283.15 K) was 0.000203. For the same molecule, the solubility (mole fraction) (in ethylene glycol, 288.15 K) was 0.000284, the solubility (mole fraction) (in ethylene glycol, 293.15 K) was 0.000386 and the solubility (mole fraction) (in ethylene glycol, 298.15 K) was 0.000504. For the same molecule, the solubility (mole fraction) (in ethylene glycol, 303.15 K) was 0.00065, the solubility (mole fraction) (in ethylene glycol, 308.15 K) was 0.000845 and the solubility (mole fraction) (in ethylene glycol, 313.15 K) was 0.00111. For the same molecule, the solubility (mole fraction) (in ethylene glycol, 318.15 K) was 0.00139, the solubility (mole fraction) (in ethylene glycol, 323.15 K) was 0.00174 and the solubility (mole fraction) (in isopropanol, 278.15 K) was 0.00258. It also gave a solubility (mole fraction) (in isopropanol, 283.15 K) of 0.00333, a solubility (mole fraction) (in isopropanol, 288.15 K) of 0.00439 and a solubility (mole fraction) (in isopropanol, 293.15 K) of 0.00534. The solubility (mole fraction) (in isopropanol, 298.15 K) was 0.00678, the solubility (mole fraction) (in isopropanol, 303.15 K) was 0.00863 and the solubility (mole fraction) (in isopropanol, 308.15 K) was 0.0109. It also gave a solubility (mole fraction) (in isopropanol, 313.15 K) of 0.0135, a solubility (mole fraction) (in isopropanol, 318.15 K) of 0.0168 and a solubility (mole fraction) (in isopropanol, 323.15 K) of 0.0205. It also gave a solubility (mole fraction) (in methanol, 278.15 K) of 0.000272, a solubility (mole fraction) (in methanol, 283.15 K) of 0.000366 and a solubility (mole fraction) (in methanol, 288.15 K) of 0.000485. For the same molecule, the solubility (mole fraction) (in methanol, 293.15 K) was 0.000633, the solubility (mole fraction) (in methanol, 298.15 K) was 0.000782 and the solubility (mole fraction) (in methanol, 303.15 K) was 0.000951. It also gave a solubility (mole fraction) (in methanol, 308.15 K) of 0.00116, a solubility (mole fraction) (in methanol, 313.15 K) of 0.0014 and a solubility (mole fraction) (in methanol, 318.15 K) of 0.00169. For the same molecule, the solubility (mole fraction) (in methanol, 323.15 K) was 0.00203, the solubility (mole fraction) (in n-propanol, 278.15 K) was 0.00382 and the solubility (mole fraction) (in n-propanol, 283.15 K) was 0.00472. For the same molecule, the solubility (mole fraction) (in n-propanol, 288.15 K) was 0.00579, the solubility (mole fraction) (in n-propanol, 293.15 K) was 0.0072 and the solubility (mole fraction) (in n-propanol, 298.15 K) was 0.00879. The solubility (mole fraction) (in n-propanol, 303.15 K) was 0.0106, the solubility (mole fraction) (in n-propanol, 308.15 K) was 0.0129 and the solubility (mole fraction) (in n-propanol, 313.15 K) was 0.0152. For the same molecule, the solubility (mole fraction) (in n-propanol, 318.15 K) was 0.018, the solubility (mole fraction) (in n-propanol, 323.15 K) was 0.0213 and the solubility (mole fraction) (in propylene glycol, 278.15 K) was 0.000194. It also gave a solubility (mole fraction) (in propylene glycol, 283.15 K) of 0.00025, a solubility (mole fraction) (in propylene glycol, 288.15 K) of 0.000338 and a solubility (mole fraction) (in propylene glycol, 293.15 K) of 0.000448. It also gave a solubility (mole fraction) (in propylene glycol, 298.15 K) of 0.000589, a solubility (mole fraction) (in propylene glycol, 303.15 K) of 0.000766 and a solubility (mole fraction) (in propylene glycol, 308.15 K) of 0.000961. For the same molecule, the solubility (mole fraction) (in propylene glycol, 313.15 K) was 0.00121, the solubility (mole fraction) (in propylene glycol, 318.15 K) was 0.00152 and the solubility (mole fraction) (in propylene glycol, 323.15 K) was 0.00187. The solubility (mole fraction) (in water, 278.15 K) was 8.21e-06, the solubility (mole fraction) (in water, 283.15 K) was 1.29e-05 and the solubility (mole fraction) (in water, 288.15 K) was 1.81e-05. It also gave a solubility (mole fraction) (in water, 293.15 K) of 2.46e-05, a solubility (mole fraction) (in water, 298.15 K) of 3.2e-05 and a solubility (mole fraction) (in water, 303.15 K) of 4.13e-05. For the same molecule, the solubility (mole fraction) (in water, 308.15 K) was 5.32e-05, the solubility (mole fraction) (in water, 313.15 K) was 6.69e-05 and the solubility (mole fraction) (in water, 318.15 K) was 8.43e-05. It also gave a solubility (mole fraction) (in water, 323.15 K) of 0.000106.
